The source of these data is ChEMBL document CHEMBL5131431, “Effect of removal of the 14-hydroxy group on the affinity of the 4,5-epoxymorphinan derivatives for orexin and opioid receptors” (Bioorg Med Chem Lett, 2022).

For assay [1], the target named is T1, Orexin/Hypocretin receptor type 1 (Homo sapiens, UniProt O43613).
T1 sequence (O43613 whole entry): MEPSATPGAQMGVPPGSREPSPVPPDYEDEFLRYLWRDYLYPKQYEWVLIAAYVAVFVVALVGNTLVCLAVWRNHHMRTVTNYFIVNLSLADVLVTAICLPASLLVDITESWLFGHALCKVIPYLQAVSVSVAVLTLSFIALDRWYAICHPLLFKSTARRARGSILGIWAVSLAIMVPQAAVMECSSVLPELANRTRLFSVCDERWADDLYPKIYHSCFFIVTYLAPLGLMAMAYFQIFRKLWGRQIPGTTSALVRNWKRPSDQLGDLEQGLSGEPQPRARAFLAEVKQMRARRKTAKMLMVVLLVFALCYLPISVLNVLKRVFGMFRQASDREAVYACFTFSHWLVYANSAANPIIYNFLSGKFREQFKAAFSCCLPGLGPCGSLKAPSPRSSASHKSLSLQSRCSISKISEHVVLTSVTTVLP
Put plainly: Binding affinity to OX1R (unknown origin) by calcium assay.

Assay [2] is filed under the species Homo sapiens. Put plainly: Selectivity index, ratio of Ki for displacement of [3H]DAMGO from human MOR expressed in HEK293 cell membrane to displacement of […] from human KOR expressed in HEK293 cell membrane.
Assay [3] deals with Mu-type opioid receptor (Homo sapiens, UniProt P35372). Nature of the assay: Displacement of [3H]DAMGO from human MOR expressed in HEK293 cell membrane. The class given is cell membranes. Background: In a radioligand displacement assay an active substance lowers the binding of a labelled ligand.
Chain of Mu-type opioid receptor (P35372 whole entry): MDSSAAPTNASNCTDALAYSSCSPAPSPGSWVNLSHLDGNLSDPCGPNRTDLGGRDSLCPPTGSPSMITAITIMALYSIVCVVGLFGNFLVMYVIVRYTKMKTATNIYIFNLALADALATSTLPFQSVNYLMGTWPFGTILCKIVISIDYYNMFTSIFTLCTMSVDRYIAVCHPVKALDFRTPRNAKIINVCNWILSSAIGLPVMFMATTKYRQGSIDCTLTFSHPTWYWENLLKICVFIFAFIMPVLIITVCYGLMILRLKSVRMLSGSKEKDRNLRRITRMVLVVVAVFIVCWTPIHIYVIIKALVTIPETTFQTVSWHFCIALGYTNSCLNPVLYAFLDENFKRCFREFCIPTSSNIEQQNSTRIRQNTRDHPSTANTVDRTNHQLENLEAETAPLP
Assay [4] deals with Delta-type opioid receptor (Homo sapiens, UniProt P41143). Nature of the assay: Displacement of […] from human DOR expressed in HEK293 cell membrane. The class given is cell membranes.
Chain of Delta-type opioid receptor (P41143 whole entry): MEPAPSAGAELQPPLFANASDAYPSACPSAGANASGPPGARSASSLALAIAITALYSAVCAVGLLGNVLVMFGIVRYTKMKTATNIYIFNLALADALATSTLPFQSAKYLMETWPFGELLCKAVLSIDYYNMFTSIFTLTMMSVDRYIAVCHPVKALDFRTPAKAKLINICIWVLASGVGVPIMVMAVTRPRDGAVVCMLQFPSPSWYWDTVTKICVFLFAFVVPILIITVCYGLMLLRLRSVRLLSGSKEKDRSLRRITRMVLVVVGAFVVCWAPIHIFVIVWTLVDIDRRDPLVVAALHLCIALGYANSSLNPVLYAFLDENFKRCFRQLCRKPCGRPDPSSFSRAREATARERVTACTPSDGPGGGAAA
Assay [5] addresses Kappa-type opioid receptor (Homo sapiens, UniProt P41145). Put plainly: Displacement of […] from human KOR expressed in HEK293 cell membrane. The assay is classed as cell membranes.
For assay [6], the species on record is Homo sapiens. Put plainly: Selectivity index, ratio of Ki for displacement of […] from human DOR expressed in HEK293 cell membrane to displacement of […] from human KOR expressed in HEK293 cell membrane.

Chain of Kappa-type opioid receptor (P41145 whole entry): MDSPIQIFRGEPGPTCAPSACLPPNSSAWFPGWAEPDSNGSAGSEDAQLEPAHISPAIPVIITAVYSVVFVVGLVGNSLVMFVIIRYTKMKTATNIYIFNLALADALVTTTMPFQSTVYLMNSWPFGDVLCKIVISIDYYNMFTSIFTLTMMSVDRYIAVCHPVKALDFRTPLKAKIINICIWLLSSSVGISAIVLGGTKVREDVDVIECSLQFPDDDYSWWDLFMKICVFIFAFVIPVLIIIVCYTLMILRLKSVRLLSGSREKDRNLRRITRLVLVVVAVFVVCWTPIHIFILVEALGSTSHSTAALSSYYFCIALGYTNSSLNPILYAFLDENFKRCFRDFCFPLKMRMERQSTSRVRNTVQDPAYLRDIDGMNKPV

As a reminder, the IC50 is the midpoint of a concentration-inhibition curve. Consider `COc1ccc2c3c1O[C@H]1[C@H](N(C)C(=O)/C=C/c4ccoc4)CC=C4[C@@H](C2)N(CC2CC2)C[C@]431`, for which the IC50 in assay [1] was more than 10 µM.
In general, Ki refers to the dissociation constant of the complex between target and ligand, obtained from inhibition or displacement. In the case of `CN(C(=O)/C=C/c1ccoc1)[C@@H]1CC=C2[C@H]3Cc4ccc(O)c5c4[C@@]2(CCN3CC2CC2)[C@H]1O5`, the Ratio Ki in assay [2] came to 100; in assay [6], 739. The Ki in assay [3] amounted to 3.57 nM; in assay [1], 30.5 nM; in assay [4] it was 26.3 nM; in assay [5], 0.0356 nM.
Regarding `CN(C(=O)/C=C/c1ccoc1)[C@@H]1CCC2[C@H]3Cc4ccc(O)c5c4[C@@]2(CCN3CC2CC2)[C@H]1O5` (some centres undefined), the results for the Ratio Ki in assay [2] and in assay [6] were 5.8 and 359, respectively. The inhibition constant Ki in assay [3] was found to be 0.158 nM; in assay [1], 218 nM; in assay [4], 9.76 nM; in assay [5], 0.0272 nM.
As for `CN(C(=O)/C=C/c1ccoc1)[C@@H]1CC[C@@]2(O)[C@H]3Cc4ccc(O)c5c4[C@@]2(CN3CC2CC2)[C@H]1O5`, the Ki in assay [3], in assay [4] and in assay [5] was more than 5000 nM each time.
With `CN(C(=O)/C=C/c1ccoc1)[C@@H]1CC[C@@]2(O)[C@H]3Cc4ccc(O)c5c4[C@@]2(CCN3CC2CC2)[C@H]1O5` [NALFURAFINE], the Ki in assay [3] was 0.7 nM; in assay [4] it was 36.5 nM.
On to `CN(C(=O)/C=C/c1ccoc1)[C@@H]1CCC2[C@H]3Cc4ccc(O)c5c4[C@@]2(CN3CC2CC2)[C@H]1O5` (some centres undefined), for which the figures for the inhibition constant Ki in assay [3], in assay [4] and in assay [5] were more than 10000 nM, more than 10000 nM and 283 nM, respectively. For the same compound, in assay [1], the IC50 was more than 10 µM.
Take `COc1ccc2c3c1O[C@H]1[C@H](N(C)C(=O)/C=C/c4ccoc4)CCC4[C@@H](C2)N(CC2CC2)CC[C@@]341` (some centres undefined): the Ki in assay [1] amounted to 28.7 nM.
Turning to `COc1ccc2c3c1O[C@H]1[C@H](N(C)C(=O)/C=C/c4ccoc4)CC=C4[C@@H](C2)N(CC2CC2)CC[C@]431`, the Ki in assay [1] was determined as 19 nM.
Regarding `CN(C(=O)/C=C/c1ccoc1)[C@@H]1CC=C2[C@H]3Cc4ccc(O)c5c4[C@@]2(CN3CC2CC2)[C@H]1O5`, the Ki in assay [3] was more than 10000 nM; in assay [4], more than 10000 nM; in assay [5] it was 1410 nM. Besides, in assay [1], the IC50 was more than 10 µM.
Regarding `COc1ccc2c3c1O[C@H]1[C@H](N(C)C(=O)/C=C/c4ccoc4)CCC4[C@@H](C2)N(CC2CC2)C[C@@]341` (some centres undefined), the IC50 in assay [1] was more than 10 µM.
